B1: FH-hGlyT2; human GlyT2 (Homo sapiens) (protein)
chain: MDCSAPKEMNKLPANSPEAAAAQGHPDGPCAPRTSPEQELPAAAAPPPPRVPRSASTGAQTFQSADARACEAERPGVGSCKLSSPRAQAASAALRDLREAQGAQASPPPGSSGPGNALHCKIPFLRGPEGDANVSVGKGTLERNNTPVVGWVNMSQSTVVLATDGITSVLPGSVATVATQEDEQGDENKARGNWSSKLDFILSMVGYAVGLGNVWRFPYLAFQNGGGAFLIPYLMMLALAGLPIFFLEVSLGQFASQGPVSVWKAIPALQGCGIAMLIISVLIAIYYNVIICYTLFYLFASFVSVLPWGSCNNPWNTPECKDKTKLLLDSCVISDHPKIQIKNSTFCMTAYPNVTMVNFTSQANKTFVSGSEEYFKYFVLKISAGIEYPGEIRWPLALCLFLAWVIVYASLAKGIKTSGKVVYFTATFPYVVLVILLIRGVTLPGAGAGIWYFITPKWEKLTDATVWKDAATQIFFSLSAAWGGLITLSSYNKFHNNCYRDTLIVTCTNSATSIFAGFVIFSVIGFMANERKVNIENVADQGPGIAFVVYPEALTRLPLSPFWAIIFFLMLLTLGLDTMFATIETIVTSISDEFPKYLRTHKPVFTLGCCICFFIMGFPMITQGGIYMFQLVDTYAASYALVIIAIFELVGISYVYGLQRFCEDIEMMIGFQPNIFWKVCWAFVTPTILTFILCFSFYQWEPMTYGSYRYPNWSMVLGWLMLACSVIWIPIMFVIKMHLAPGRFIERLKLVCSPQPDWGPFLAQHRGERYKNMIDPLGTSSLGLKLPVKDLELGTQC

Tests used:
FH-hGlyT2; human GlyT2 = molecular target: T1, FH-hGlyT2; human GlyT2 (Homo sapiens, UniProt Q9Y345); assay: glycine uptake inhibition in PAE cells; type: cell-based
T1 sequence (Q9Y345 1-797): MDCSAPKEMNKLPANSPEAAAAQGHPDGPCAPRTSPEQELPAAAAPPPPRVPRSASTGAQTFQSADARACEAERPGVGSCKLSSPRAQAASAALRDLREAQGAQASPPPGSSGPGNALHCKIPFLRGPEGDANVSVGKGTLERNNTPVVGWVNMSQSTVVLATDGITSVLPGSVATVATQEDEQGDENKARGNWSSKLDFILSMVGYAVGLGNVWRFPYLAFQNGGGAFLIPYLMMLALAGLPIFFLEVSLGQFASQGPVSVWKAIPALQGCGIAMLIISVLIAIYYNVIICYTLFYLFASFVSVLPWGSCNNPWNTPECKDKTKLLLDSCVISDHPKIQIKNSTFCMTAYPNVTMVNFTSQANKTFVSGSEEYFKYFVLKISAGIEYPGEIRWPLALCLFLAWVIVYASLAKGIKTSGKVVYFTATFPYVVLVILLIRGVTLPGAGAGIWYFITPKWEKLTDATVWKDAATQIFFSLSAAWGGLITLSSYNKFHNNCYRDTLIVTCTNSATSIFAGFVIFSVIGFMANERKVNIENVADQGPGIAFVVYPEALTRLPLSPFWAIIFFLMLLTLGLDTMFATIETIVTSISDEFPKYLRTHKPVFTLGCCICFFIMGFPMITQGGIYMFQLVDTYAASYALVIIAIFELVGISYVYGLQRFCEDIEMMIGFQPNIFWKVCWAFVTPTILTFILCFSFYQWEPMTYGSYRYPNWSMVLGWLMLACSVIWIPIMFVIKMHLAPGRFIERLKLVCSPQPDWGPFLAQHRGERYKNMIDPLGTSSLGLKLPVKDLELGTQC

[1] = substrate: NCC(=O)O; assay: glycine uptake in PAE cells; type: cell-based, Homo sapiens

| Molecule | IC50 (FH-hGlyT2; human GlyT2; pH 7.5, 10 min uptake) [nM] | other results |
| --- | --- | --- |
| CN(CC[C@@H](Oc1ccc(-c2ccccc2)cc1)c1ccc(F)cc1)CC(=O)O [ALX5407, reference compound] | – | IC50 (FH-hGlyT2; human GlyT2; slow rate of inhibition, data not shown): 1800 nM |
| O=C(O)CCSc1[nH]c(=O)nc2[nH]c(=O)[nH]c12 [compound 1, ZINC6620309] | 478 ± 28 | – |
| O=C(O)CCCCSc1ncnc2[nH]c(=O)[nH]c12 [ZINC6865169] | 518 ± 66 | – |
| N[C@@H](COC(c1cccc(F)c1)c1ccccc1OCc1ccccc1)C(=O)O (stereo partly drawn) [ALX1393, reference compound] | 26 ± 3 | – |
| O=c1[nH]c2c(c(=O)[nH]1)CCN(Cc1ccccc1)C2 [Lead 3] | 33200 | – |
| B1 | – | Km [1]: 123 µM |

Reference: article doi:10.1101/510487v2 (biorxiv, 2019)
